Experimental data from patent publication US8471005B2 (Cephalon, Inc., priority 2008, dated 2013).
Read-outs that look alike come from different tables or passages of the source.

Legend:
ALK = molecular target: T1, ALK (Homo sapiens, UniProt Q9UM73); assay: ALK Kinase Assay (ELISA/TRF, PLC-γ substrate); format: biochemical; conditions: read-out: ALK Potency
T1 construct: host or cells: baculovirus expression system
Method in brief: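 First, plates are coated with substrate (phospholipase C-γ, 10 μg/mL, TBS). Next, 30 ng/ml ALK initiates phosphorylation for 15 min at 37° C. Then Eu-N1 PT66 antibody is added for detection, and a nonlinear dose-response fit of percent inhibition yields IC50.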

JAK2 = molecular target: T2, JAK2 (Homo sapiens, UniProt O60674); assay: Recombinant Human JAK2 Kinase Assay (TRF); format: biochemical; conditions: read-out: JAK2 Potency
T2 construct: host or cells: baculovirus expression system
T2 sequence (O60674 whole entry): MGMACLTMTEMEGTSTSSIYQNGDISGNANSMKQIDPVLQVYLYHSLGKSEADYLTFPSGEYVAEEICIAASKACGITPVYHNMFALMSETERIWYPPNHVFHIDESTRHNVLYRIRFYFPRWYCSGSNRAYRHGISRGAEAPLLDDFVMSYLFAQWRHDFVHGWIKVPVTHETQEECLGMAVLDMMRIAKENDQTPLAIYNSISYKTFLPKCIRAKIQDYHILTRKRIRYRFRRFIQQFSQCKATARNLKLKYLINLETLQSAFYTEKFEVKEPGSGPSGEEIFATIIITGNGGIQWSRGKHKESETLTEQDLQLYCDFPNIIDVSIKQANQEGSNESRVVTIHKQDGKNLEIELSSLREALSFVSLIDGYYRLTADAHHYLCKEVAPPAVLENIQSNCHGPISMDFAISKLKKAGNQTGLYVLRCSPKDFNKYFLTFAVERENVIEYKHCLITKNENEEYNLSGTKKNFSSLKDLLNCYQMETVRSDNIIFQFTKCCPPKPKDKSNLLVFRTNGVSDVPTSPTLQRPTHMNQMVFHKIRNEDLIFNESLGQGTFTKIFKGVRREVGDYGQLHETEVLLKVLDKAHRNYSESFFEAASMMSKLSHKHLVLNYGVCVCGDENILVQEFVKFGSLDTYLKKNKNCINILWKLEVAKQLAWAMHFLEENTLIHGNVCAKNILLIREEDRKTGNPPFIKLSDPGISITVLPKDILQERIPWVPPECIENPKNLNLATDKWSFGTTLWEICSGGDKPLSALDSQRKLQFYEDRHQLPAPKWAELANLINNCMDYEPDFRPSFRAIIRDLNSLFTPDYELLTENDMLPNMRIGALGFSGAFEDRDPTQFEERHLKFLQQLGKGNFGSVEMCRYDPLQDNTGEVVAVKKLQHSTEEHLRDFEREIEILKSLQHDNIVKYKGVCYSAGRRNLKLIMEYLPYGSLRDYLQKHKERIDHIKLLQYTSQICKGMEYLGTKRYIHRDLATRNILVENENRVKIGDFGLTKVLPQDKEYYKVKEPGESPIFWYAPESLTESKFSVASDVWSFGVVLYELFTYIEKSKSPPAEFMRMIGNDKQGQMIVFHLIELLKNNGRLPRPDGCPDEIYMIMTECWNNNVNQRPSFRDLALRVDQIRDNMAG
Experimental: Compounds were tested for their ability to inhibit the kinase activity of baculovirus-expressed JAK2 using the TRF detection system. […] The plates were coated first with 100 μL/well of 10 μg/mL Neutravidin (Pierce #31000, Rockford, Ill.) in TBS at 37° C. for 2 hours, followed by 100 μL/well of 1 μg/mL 15-mer peptide substrate (biotinyl-amino-hexanoyl-[…]-amide, Infinity Biotech Research and Resource, Aston, Pa.) at 37° C. for another hour. The JAK2 assay mixture (total volume=100 μL/well) consisting of 20 mM HEPES (pH 7.2), 0.2 μM ATP, 1 mM MnCl2, 0.1% BSA, and test compound (diluted in DMSO; 2.5% DMSO final in assay) was then added to the assay plate. Enzyme (15 ng/ml JAK2) was added and the reaction was allowed to proceed at room temperature for 20 minutes. Detection of the phosphorylated product was performed by adding 100 μL/well of Eu—N1 labeled PY100 antibody (PerkinElmer Life Sciences #AD0041, Boston, Mass.).

[1] = ALK kinase inhibition, 1 μM ATP
[2] = JAK2 kinase inhibition, 0.2 μM ATP

T1 sequence (Q9UM73 19-1620): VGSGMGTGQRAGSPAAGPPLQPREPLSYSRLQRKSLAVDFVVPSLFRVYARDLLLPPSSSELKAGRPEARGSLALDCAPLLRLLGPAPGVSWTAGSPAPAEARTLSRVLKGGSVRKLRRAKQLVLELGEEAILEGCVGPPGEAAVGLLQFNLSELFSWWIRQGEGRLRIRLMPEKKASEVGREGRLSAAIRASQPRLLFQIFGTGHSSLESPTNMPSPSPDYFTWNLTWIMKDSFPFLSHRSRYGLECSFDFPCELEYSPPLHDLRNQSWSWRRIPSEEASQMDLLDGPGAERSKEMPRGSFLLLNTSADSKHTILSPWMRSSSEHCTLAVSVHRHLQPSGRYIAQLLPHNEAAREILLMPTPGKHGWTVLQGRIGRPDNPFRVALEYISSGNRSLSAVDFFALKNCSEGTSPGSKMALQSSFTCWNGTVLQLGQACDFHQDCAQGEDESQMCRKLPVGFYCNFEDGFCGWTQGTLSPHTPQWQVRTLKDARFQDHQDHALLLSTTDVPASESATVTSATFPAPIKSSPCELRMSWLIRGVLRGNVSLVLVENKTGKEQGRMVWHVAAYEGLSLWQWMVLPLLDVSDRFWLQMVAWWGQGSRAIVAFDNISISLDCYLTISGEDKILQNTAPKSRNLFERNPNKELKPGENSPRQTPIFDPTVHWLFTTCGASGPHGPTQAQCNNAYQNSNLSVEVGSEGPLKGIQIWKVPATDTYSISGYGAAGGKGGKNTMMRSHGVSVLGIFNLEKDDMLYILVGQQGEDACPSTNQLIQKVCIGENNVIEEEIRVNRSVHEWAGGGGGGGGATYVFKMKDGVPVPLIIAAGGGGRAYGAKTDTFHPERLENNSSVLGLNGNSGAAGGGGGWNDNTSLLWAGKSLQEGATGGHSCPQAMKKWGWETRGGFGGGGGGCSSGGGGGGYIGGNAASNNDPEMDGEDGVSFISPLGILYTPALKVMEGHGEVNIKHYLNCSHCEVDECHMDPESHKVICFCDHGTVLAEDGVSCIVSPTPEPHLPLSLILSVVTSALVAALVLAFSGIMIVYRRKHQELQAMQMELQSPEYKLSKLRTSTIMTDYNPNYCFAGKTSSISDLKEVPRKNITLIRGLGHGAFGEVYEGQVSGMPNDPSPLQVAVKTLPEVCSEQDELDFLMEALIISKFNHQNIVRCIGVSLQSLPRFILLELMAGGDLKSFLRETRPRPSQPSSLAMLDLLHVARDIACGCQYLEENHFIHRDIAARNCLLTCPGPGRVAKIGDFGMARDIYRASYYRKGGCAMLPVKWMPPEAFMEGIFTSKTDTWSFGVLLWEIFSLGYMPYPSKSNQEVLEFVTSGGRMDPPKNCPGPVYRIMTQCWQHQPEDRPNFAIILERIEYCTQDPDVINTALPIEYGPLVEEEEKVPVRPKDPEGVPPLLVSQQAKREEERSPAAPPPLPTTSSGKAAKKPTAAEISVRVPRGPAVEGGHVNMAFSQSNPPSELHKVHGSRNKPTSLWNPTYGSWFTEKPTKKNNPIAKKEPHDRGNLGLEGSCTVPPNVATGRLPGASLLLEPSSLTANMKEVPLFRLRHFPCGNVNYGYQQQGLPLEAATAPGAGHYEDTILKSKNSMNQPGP

Row | Compound | IC50 (ALK; ALK Kinase Inhibition) [µM] | IC50 (JAK2; JAK2 Kinase Inhibition) [µM] | IC50 (ALK; [1]) [µM] | IC50 (JAK2; [2]) [µM]
1 | COc1cc(N2CCC(N3CCOCC3)CC2)ccc1Nc1ncc2ccc(-c3ccccc3C(C)=O)n2n1 [Example 1454, 1-(2-{2-[2-Methoxy-4-(4-morpholin-4-yl-piperidin-1-yl)-phenylamino]-pyrrolo[2,1-f][1,2,4]triazin-7-yl}-phenyl)-ethanone] | < 0.1 | 0.1 to 1 | – | –
2 | COc1cc(C2CCN(CC(=O)O)CC2)ccc1Nc1ncc2ccc(-c3ccccc3OC)n2n1 [Example 1278, (4-{3-Methoxy-4-[7-(2-methoxy-phenyl)-pyrrolo[2,1-f][1,2,4]triazin-2-ylamino]-phenyl}-piperidin-1-yl)-acetic acid] | – | – | < 0.1 | 0.1 to 1
3 | CCN1CCN(C(=O)c2ccc(Nc3ncc4c(-c5ccc(F)cc5)ccn4n3)cc2)CC1 [Example 727, (4-Ethyl-piperazin-1-yl)-{4-[5-(4-fluoro-phenyl)-pyrrolo[2,1-f][1,2,4]triazin-2-ylamino]-phenyl}-methanone] | – | – | > 10 | > 10
4 | CN1CCN(c2ccc(Nc3ncc4ccc(C5=CCN(S(C)(=O)=O)CC5)n4n3)cc2)CC1 [Example 1139, [7-(1-Methane sulfonyl-1,2,3,6-tetrahydro-pyridin-4-yl)-pyrrolo[2,1-f][1,2,4]triazin-2-yl]-[4-(4-methyl-piperazin-1-yl)-phenyl]-amine] | – | – | 0.1 to 1 | < 0.1
5 | COC[C@H](O)CN1CCN(Cc2ccc(Nc3ncc4ccc(-c5ccccc5OC)n4n3)c(OC)c2)CC1 [Example 1227, (R)-1-Methoxy-3-(4-{3-methoxy-4-[7-(2-methoxy-phenyl)-pyrrolo[2,1-f][1,2,4]triazin-2-ylamino]-benzyl}-piperazin-1-yl)-propan-2-ol] | – | – | < 0.1 | 0.1 to 1
6 | COc1ccccc1-c1ccc2cnc(Nc3cnn(C4CCNCC4)c3)nn12 [Example 716, 4-{4-[7-(2-Methoxy-phenyl)-pyrrolo[2,1-f][1,2,4]triazin-2-ylamino]-pyrazol-1-yl}-piperidine] | – | – | < 0.1 | < 0.1
7 | COc1ccc(CN2CCOCC2)cc1Nc1ncc2ccc(-c3ccccc3OC)n2n1 [Example 499, (2-Methoxy-5-morpholin-4-ylmethyl-phenyl)-[7-(2-methoxy-phenyl)-pyrrolo[2,1-f][1,2,4]triazin-2-yl]-amine] | – | – | 1 to 10 | 0.1 to 1
8 | Clc1cccc(-c2ccc3cnc(-n4cnc5cnccc54)nn23)c1 [Example 324, 1-[7-(3-Chloro-phenyl)-pyrrolo[2,1-f][1,2,4]triazin-2-yl]-1H-imidazo[4,5-c]pyridine] | 1 to 10 | 1 to 10 | – | –
9 | CC(C)(C)NS(=O)(=O)c1cccc(-c2ccc3cnc(Nc4ccc(C5(C#N)CCN(CC(N)=O)CC5)cc4)nn23)c1 [Example 1544, 2-(4-{4-[7-(3-tert-Butylsulfamoyl-phenyl)-pyrrolo[2,1-f][1,2,4]triazin-2-ylamino]-phenyl}-4-cyano-piperidin-1-yl)-acetamide] | 0.1 to 1 | < 0.1 | – | –
10 | COc1ccc(Cl)cc1-c1ccc2cnc(Nc3ccc(N4CCN(C[C@H](C)O)CC4)cc3)nn12 [Example 203, (S)-1-(4-{4-[7-(5-Chloro-2-methoxy-phenyl)-pyrrolo[2,1-f][1,2,4]triazin-2-ylamino]-phenyl}-piperazin-1-yl)-propan-2-ol] | < 0.1 | < 0.1 | – | –
11 | COc1cccc(-c2ccn3nc(Nc4ccc(N5CCN(C)CC5)cc4)ncc23)c1 [Example 725, [5-(3-Methoxy-phenyl)-pyrrolo[2,1-f][1,2,4]triazin-2-yl]-[4-(4-methyl-piperazin-1-yl)-phenyl]-amine] | – | – | > 10 | > 10
12 | CN1CCN(c2ccc(Nc3ncc4cc5ccccc5n4n3)cc2)CC1 [Example 263, [4-(4-Methyl-piperazin-1-yl)-phenyl]-[1,2,4]triazino[1,6-a]indol-2-yl-amine] | 0.1 to 1 | < 0.1 | – | –
13 | Cn1cc(-c2ccc3cnc(Nc4ccc(N5CCC(N6CCOCC6)CC5)cc4)nn23)cn1 [Example 1187, [7-(1-Methyl-1H-pyrazol-4-yl)-pyrrolo[2,1-f][1,2,4]triazin-2-yl]-[4-(4-morpholin-4-yl-piperidin-1-yl)-phenyl]-amine] | – | – | 0.1 to 1 | < 0.1
14 | COc1ccccc1-c1ccc2cnc(Nc3ccc(N4CCC(C(=O)N5CCN(C)CC5)CC4)cc3)nn12 [Example 444, (1-{4-[7-(2-Methoxy-phenyl)-pyrrolo[2,1-f][1,2,4]triazin-2-ylamino]-phenyl}-piperidin-4-yl)-(4-methyl-piperazin-1-yl)-methanone] | < 0.1 | < 0.1 | – | –
15 | N-{2-[2-(1-Methyl-2-oxo-2,3,4,5-tetrahydro-1H-benzo[b]azepin-7-ylamino)pyrrolo[2,1-f][1,2,4]triazin-7-yl]-phenyl}methanesulfonamide [Example 625] | – | – | 0.1 to 1 | < 0.1

Further lines, results first:

Row | IC50 (ALK; ALK Kinase Inhibition) [µM] | IC50 (JAK2; JAK2 Kinase Inhibition) [µM] | IC50 (ALK; [1]) [µM] | IC50 (JAK2; [2]) [µM] | Compound
16 | 1 to 10 | < 0.1 | – | – | CN1CCN(c2ccc(Nc3ncc4ccc(Nc5ccccc5)n4n3)cc2)CC1 [Example 24, N(2)-[4-(4-Methyl-piperazin-1-yl)-phenyl]-N(7)-phenyl-pyrrolo[2,1-f][1,2,4]triazine-2,7-diamine]
17 | 0.1 to 1 | < 0.1 | – | – | Cn1cc(-c2ccc3cnc(Nc4cccc(N5CCOCC5)c4)nn23)cn1 [Example 198, [7-(1-Methyl-1H-pyrazol-4-yl)-pyrrolo[2,1-f][1,2,4]triazin-2-yl]-(3-morpholin-4-yl-phenyl)-amine]
18 | – | – | 0.1 to 1 | < 0.1 | COc1cc(-c2ccc3cnc(Nc4ccc(C5CCN(C)CC5)cc4)nn23)ccn1 [Example 676, [7-(2-Methoxy-pyridin-4-yl)-pyrrolo[2,1-f][1,2,4]triazin-2-yl]-[4-(1-methyl-piperidin-4-yl)-phenyl]-amine]
19 | – | – | 1 to 10 | < 0.1 | CS(=O)(=O)Nc1cccc(-c2ccc3cnc(Nc4ccn(CCN5CCOCC5)n4)nn23)c1 [Example 1185, N-(3-{2-[1-(2-Morpholin-4-yl-ethyl)-1H-pyrazol-3-ylamino]-pyrrolo[2,1-f][1,2,4]triazin-7-yl}-phenyl)-methanesulfonamide]
20 | 0.1 to 1 | < 0.1 | – | – | COc1ccc(Cl)cc1-c1ccc2cnc(Nc3ccc4ncccc4c3)nn12 [Example 173, [7-(5-Chloro-2-methoxy-phenyl)-pyrrolo[2,1-f][1,2,4]triazin-2-yl]-quinolin-6-yl-amine]
21 | – | – | > 10 | < 0.1 | CC(=O)N1CCc2ccc(Nc3ncc4ccc(-c5cccc(NC(=O)C(C)(C)C)c5)n4n3)cc21 [Example 882, N-{3-[2-(1-Acetyl-2,3-dihydro-1H-indol-6-ylamino)-pyrrolo[2,1-f][1,2,4]triazin-7-yl]-phenyl}-2,2-dimethyl-propionamide]
22 | – | – | < 0.1 | < 0.1 | COc1ccccc1-c1ccc2cnc(Nc3ccc(C4CCN(C)CC4)c(OC)c3)nn12 [Example 908, [3-Methoxy-4-(1-methyl-piperidin-4-yl)-phenyl]-[7-(2-methoxy-phenyl)-pyrrolo[2,1-f][1,2,4]triazin-2-yl]-amine]
23 | – | – | 0.1 to 1 | < 0.1 | COc1ccccc1-c1ccc2cnc(Nc3ccc(C4=CCN(CC(N)=O)CC4)c(C(F)(F)F)c3)nn12 [Example 952, 2-(4-{4-[7-(2-Methoxy-phenyl)-pyrrolo[2,1-f][1,2,4]triazin-2-ylamino]-2-trifluoromethyl-phenyl}-3,6-dihydro-2H-pyridin-1-yl)-acetamide]
24 | – | – | < 0.1 | < 0.1 | NC(=O)CN1CC(c2ccc(Nc3ncc4ccc(-c5cccc6c5OCC6)n4n3)cc2)C1 [Example 587, 2-(3-{4-[7-(2,3-Dihydro-benzofuran-7-yl)-pyrrolo[2,1-f][1,2,4]triazin-2-ylamino]-phenyl}-azetidin-1-yl)-acetamide]
25 | – | – | < 0.1 | < 0.1 | CCNS(=O)(=O)c1cccc(-c2ccc3cnc(Nc4ccc(C5CCN(CC(N)=O)CC5)cc4)nn23)c1 [Example 929, 2-(4-{4-[7-(3-Ethylsulfamoyl-phenyl)-pyrrolo[2,1f][1,2,4]triazin-2-ylamino]-phenyl}-piperidin-1-yl)-acetamide]
26 | – | – | 0.1 to 1 | < 0.1 | CN(c1ccccc1-c1ccc2cnc(Nc3ccc4nc(CO)[nH]c4c3)nn12)S(C)(=O)=O [Example 1071, N-{2-[2-(2-Hydroxymethyl-3H-benzoimidazol-5-ylamino)-pyrrolo[2,1-f][1,2,4]triazin-7-yl]-phenyl}-N-methyl-methanesulfonamide]
27 | > 10 | < 0.1 | – | – | Clc1cccc(-c2ccc3cnc(Nc4ccc5c(c4)OCO5)nn23)c1 [Example 150, 1,3-Benzodioxol-5-yl-[7-(3-chloro-phenyl)-pyrrolo[2,1-f][1,2,4]triazin-2-yl]-amine]
28 | 0.1 to 1 | < 0.1 | – | – | COc1ccccc1-c1ccc2cnc(Nc3ccc(N4CCOCC4)nc3)nn12 [Example 47, [7-(2-Methoxy-phenyl)-pyrrolo[2,1-f][1,2,4]triazin-2-yl]-(6-morpholin-4-yl-pyridin-3-yl)-amine]
